From paper PMC11270681, “Synthesis and Systematic Investigation of Lepidiline A and Its Gold(I), Silver(I), and Copper(I) Complexes Using In Vitro Cancer Models and Multipotent Stem Cells” (ACS Omega, 2024)
Where “and” joins values, the source holds several entries; their conditions need not be identical. Equal values may be shown once.

Key:
Mes-Sa/Dx5 = test: Cytotoxicity, doxorubicin-selected MDR uterine sarcoma line; format: cell-based; settings: Mes-Sa/Dx5 (doxorubicin selected, ABCB1 expressing), fluorescent protein intensity after 144 h
Protocol: (§1) OVCAR-3 (OVC-3) and OVCAR-8 (OVC-8) ovarian serous adenocarcinomas, IGROV-1 ovarian endometrioid adenocarcinoma, OVCAR-5 (OVC-5) upper gastrointestinal carcinoma, MDA-MB-231 breast adenocarcinoma, and MCF-7 and T-47D invasive breast carcinomas were purchased from the Developmental Therapeutic Program of the National Cancer Institute (NIH, USA) and were cultured in an RPMI medium (Thermo Fisher). Mes-Sa and Mes-Sa/Dx5 uterine sarcoma cell lines were purchased from American Type Culture Collection (ATCC) and were kept in DMEM (Thermo Fisher). Mes-Sa B1 was transfected with the human MDR1 gene, and Mes-Sa mCherry, Mes-Sa B1 mOrange, and Mes-Sa/Dx5 eGFP were engineered to stably express the respective fluorescent proteins previously.[51] Culture media for cancer cells were supplemented with 10% fetal bovine serum, 2 mM L-glutamine, and 100 units/mL penicillin and 100 μg/mL streptomycin (Thermo Fisher). The adipose tissue and bone marrow-derived mesenchymal stem cells (AD-MSC and BM-MSC) were described previously[37] and were kept in DMEM-F12 (Gibco) supplemented with 10% fetal bovine serum, L-glutamine (Thermo Fisher), 0.1% gentamicin (Gibco, 50 mg/mL), and 16 ng/mL fibroblast growth factor 2 (Peprotech). Cells were kept at 37 °C under 5% CO2 and were negative for mycoplasma infection.
(§2) Cytotoxicities of the nonfluorescent cancer cells were assessed with a PrestoBlue cell viability reagent (Thermo Fisher). Briefly, 2500 cells/well were seeded on 384-well plates; then, the next-day drugs were added. After 72 h of incubation, PrestoBlue was added in a 10% final concentration, and after an hour of additional incubation, plates were measured with a PerkinElmer EnSpire plate reader at 555 nm/585 nm excitation/emission wavelengths. Stem cells were seeded on 96-well plates at a density of 5000 cells/well, and the following day, drugs were added for 96 h of incubation; then, viability was assessed with 10% PrestoBlue diluted in PBS. Fluorescent cancer cells were admixed before seeding on 384-well plates at an 800 cells/well density each, thus altogether 2400 cells/well. Drugs were added the following day, and the intensity of the fluorescent proteins was measured after 144 h of incubation at the respective fluorescent channels (excitation/emission, eGFP: 485 nm/510 nm; mCherry: 585 nm/610 nm; mOrange: 545 nm/567 nm). pIC50 values were calculated by a custom program written by Judit Sessler in C#. IC50 values and standard deviation were calculated from average pIC50 values from at least 3 independent measurements.

MCF-7 [1] = test: H2DCFDA intracellular ROS production assay; format: cell-based; settings: MCF-7, 50 μM, 4 h incubation, vs medium
Protocol: (§3) To assess intracellular ROS production, we used a H2DCFDA cellular ROS assay kit (ab113851, Abcam) according to the manufacturer’s instructions. Briefly, 20,000 cells were seeded on 96-well plates. On the following day, cells were washed, and H2DCFDA solution, prepared by avoiding direct light, was added for 45 min. Next, cells were washed, and 50 μM samples of test compounds were aspirated on the cells in a complete and phenol red-free medium (FluoroBrite, Thermo Fisher). At each hour, fluorescence of 2′,7′-dichlorofluorescein (DCF) was measured at 484 nm/535 nm excitation/emission wavelengths. Values were normalized to 0 h measurements. Values indicate at least 3 independent measurements.

T-47D [2] = test: H2DCFDA intracellular ROS production assay; format: cell-based; settings: 50 μM, 4 h incubation, vs medium
Protocol: as §3

Mes-Sa [3] = test: H2DCFDA intracellular ROS production assay; format: cell-based; settings: 50 μM, 4 h incubation, vs medium
Protocol: as §3

Mes-Sa [4] = test: Cytotoxicity, uterine sarcoma parental line; format: cell-based; settings: fluorescent protein intensity after 144 h
Protocol: as §1, §2

OVC-8 = test: Cytotoxicity (PrestoBlue), ovarian cancer line; format: cell-based; settings: OVC-8, 72 h incubation
Protocol: as §1, §2

OVC-3 = test: Cytotoxicity (PrestoBlue), ovarian cancer line; format: cell-based; settings: OVC-3, 72 h incubation
Protocol: as §1, §2

IGROV-1 = test: Cytotoxicity (PrestoBlue), ovarian cancer line; format: cell-based; settings: IGROV-1, 72 h incubation
Protocol: as §1, §2

Mes-Sa B1 = test: Cytotoxicity, MDR1-transfected uterine sarcoma line; format: cell-based; settings: Mes-Sa B1 (MDR1 transfected, ABCB1 expressing), fluorescent protein intensity after 144 h
Protocol: as §1, §2

im. BM-MSC = test: Cytotoxicity (PrestoBlue), immortalized bone marrow MSC; format: cell-based; settings: 96 h incubation
Protocol: as §1, §2

BM-MSC = test: Cytotoxicity (PrestoBlue), bone marrow-derived mesenchymal stem cells; format: cell-based; settings: 96 h incubation
Protocol: as §1, §2

[5] = Stability in serum-free culture medium by HPLC-UV; format: physicochemical; settings: for AUC (HPLC-UV), single measurements 1-5 / AUC (HPLC-UV), average: serum-free culture medium
Protocol: Stability of the metal complexes in solution was measured in serum-free culture medium. The compounds were dissolved in DMSO right before the experiment. Solutions of Cu-LA and Ag-LA contained 1% final volume of DMSO, while Au-LA contained 30% DMSO. Samples were taken right after dilution, and after 1 h, 2 h, 4 h, 8 h, 16 h, 32 and 48 h, and measured by HPLC-UV.

AD-MSC = test: Cytotoxicity (PrestoBlue), adipose-derived mesenchymal stem cells; format: cell-based; settings: 96 h incubation
Protocol: as §1, §2

OVC-5 = test: Cytotoxicity (PrestoBlue), upper gastrointestinal cancer line; format: cell-based; settings: OVC-5, 72 h incubation, PrestoBlue
Protocol: as §1, §2

MCF-7 [6] = test: Cytotoxicity (PrestoBlue), breast cancer line; format: cell-based; settings: MCF-7, 72 h incubation
Protocol: as §1, §2

MDA-MB-231 = test: Cytotoxicity (PrestoBlue), breast cancer line; format: cell-based; settings: MDA-MB-231, 72 h incubation
Protocol: as §1, §2

T-47D [7] = test: Cytotoxicity (PrestoBlue), breast cancer line; format: cell-based; settings: 72 h incubation
Protocol: as §1, §2

[8] = tested on: Bone marrow MSCs (BM-MSC); test: Cytotoxicity, range over bone marrow MSCs; format: cell-based; settings: BM-MSC and immortalized BM-MSC
Protocol: as §1, §2

Q: For `Cc1c(C)n(Cc2ccccc2)[c](=[Cu][Cl])n1Cc1ccccc1` [Cu-LA, Chloro-(1,3-dibenzyl-4,5-dimethyl-imidazol-2-ylidene)copper], which IC50 (Mes-Sa/Dx5) is on record?
A: 76.6 µM

Q: What about the “Higher intracellular ROS formation” value (MCF-7 [1]) of the same molecule?
A: 2–3 fold

Q: What about the “Higher intracellular ROS formation” value (T-47D [2]) of the same molecule?
A: 2–3 fold

Q: What about the “Higher intracellular ROS formation” value (Mes-Sa [3]) of the same molecule?
A: 2–3 fold

Q: What about the IC50 (Mes-Sa [4]) of the same molecule?
A: 18.5 µM

Q: And the IC50 (OVC-8)?
A: 67.6 µM

Q: What about the IC50 (OVC-3) of the same molecule?
A: 58.5 µM

Q: And the IC50 (IGROV-1)?
A: 72.9 µM

Q: What about the IC50 (Mes-Sa B1) of the same molecule?
A: > 100 µM

Q: And the IC50 (im. BM-MSC)?
A: 75.4 µM

Q: What about the IC50 (BM-MSC) of the same molecule?
A: 98.3 µM

Q: What about the “AUC (HPLC-UV), single measurements 1-5” value ([5]; 0 h) of the same molecule?
A: 1030 and 1011 and 1021 and 1023 and 1047

Q: What about the “AUC (HPLC-UV), average” value ([5]; 0 h, Cu-LA, Ag-LA 1% DMSO, Au-LA 30% DMSO) of the same molecule?
A: 1026

Q: What about the “AUC (HPLC-UV), average” value ([5]; 1 h) of the same molecule?
A: 1019

Q: And the “AUC (HPLC-UV), single measurements 1-5” value ([5]; 1 h)?
A: 1022 and 1016 and 1021 and 1017

Q: And the “AUC (HPLC-UV), average” value ([5]; 2 h)?
A: 1022

Q: What about the “AUC (HPLC-UV), single measurements 1-5” value ([5]; 2 h) of the same molecule?
A: 1021 and 1020 and 1022 and 1023

Q: What about the “AUC (HPLC-UV), average” value ([5]; 4 h) of the same molecule?
A: 1042

Q: What about the “AUC (HPLC-UV), single measurements 1-5” value ([5]; 4 h) of the same molecule?
A: 1040 and 1041 and 1043 and 1044

Q: What about the “AUC (HPLC-UV), average” value ([5]; 8 h) of the same molecule?
A: 1044

Q: What about the “AUC (HPLC-UV), single measurements 1-5” value ([5]; 8 h) of the same molecule?
A: 1045 and 1042 and 1044 and 1046

Q: What about the “AUC (HPLC-UV), average” value ([5]; 16 h) of the same molecule?
A: 1042

Q: What about the “AUC (HPLC-UV), single measurements 1-5” value ([5]; 16 h) of the same molecule?
A: 1039 and 1042 and 1046

Q: And the “AUC (HPLC-UV), average” value ([5]; 32 h)?
A: 1038

Q: What about the “AUC (HPLC-UV), single measurements 1-5” value ([5]; 32 h) of the same molecule?
A: 1030 and 1041 and 1038 and 1042 and 1039

Q: What about the “AUC (HPLC-UV), average” value ([5]; 48 h) of the same molecule?
A: 1039

Q: And the “AUC (HPLC-UV), single measurements 1-5” value ([5]; 48 h)?
A: 1038 and 1039 and 1040

Q: What about the “Stability in serum-free culture medium” value ([5]; HPLC-UV, observed 48 h) of the same molecule?
A: stable

Q: What about the IC50 (AD-MSC) of the same molecule?
A: 23.7 µM

Q: And the IC50 (OVC-5)?
A: 104 µM

Q: And the IC50 (MCF-7 [6])?
A: 41.3 µM

Q: What about the IC50 (MDA-MB-231) of the same molecule?
A: 62.5 µM

Q: And the IC50 (T-47D [7])?
A: 24.8 µM

Q: What about the IC50 [8] of the same molecule?
A: 48 to 98 µM
